Test: Human HepG2 cell viability assay in 384 well format
Format: toxicity, cell-based
Design: dose 125 nL, time 70.5 hour; concentration not given beside the values
Settings: HepG2 cells, read-out: Inhibition

Structure (SMILES)	cytotoxicity at 70.5 h
COc1ccc(-n2cc(CNC(=O)c3cscn3)nn2)cc1	-17.7%
Cc1ccc(C2CN(CCS(=O)(=O)C(C)C)CCO2)c(C)c1 (stereo unspecified)	-1.77%
CC(O)CCN(C)C(=O)Nc1cc(F)cc(Br)c1 (stereo unspecified)	1.72%
Cc1ccccc1CCCN1CCS(=O)(=O)CC1C (stereo unspecified)	-6.59%
CCCc1nc(CN(CCO)Cc2cc(Br)ccc2F)no1	-13.1%
CC(C)N1C(=O)CN(CCOCCO)CC1(C)C	-1.37%
COCCN(Cc1ccco1)c1ncc(C#N)cc1Cl	20.3%
Cc1nc(C)n(CC2CCCN2Cc2cn3ccccc3c2C#N)n1 (stereo unspecified)	-6.14%
O=C(CN1CCCC(c2noc(C3CC3)n2)C1)N1CCCC1 (stereo unspecified)	4.7%
CC(SCCC(=O)NC(N)=O)c1cccc(F)c1 (stereo unspecified)	15.9%
CC(c1ccccc1)N(C)C(=O)CN1CCN(c2cnccn2)CC1 (stereo unspecified)	-16.2%
COCc1nc(C(=O)NS(=O)(=O)c2ccc(OC)c(C)c2)cs1	-13.2%
CN1CCCC(N(C)C(=O)c2ccc(NC(=O)c3ccc[nH]3)cc2)C1 (stereo unspecified)	-0.19%
O=C(NCc1nnc2ccccn12)N1CCOC(c2cccs2)C1 (stereo unspecified)	-8.39%
O=C(NCc1nnc2ccccn12)N1CCOC(c2ccsc2)C1 (stereo unspecified)	-14.6%
CC(CNC(=O)CCCc1ccccn1)c1ccsc1 (stereo unspecified)	-12.4%
CCN(CC)C(CNC(=O)CCc1nc(C(C)C)no1)c1ccco1 (stereo unspecified)	-2.56%
N#Cc1ccc(Cl)cc1N1CCC(OC2CCOCC2)CC1	-3.88%
CC(=O)N1Cc2ccccc2C[C@H]1C(=O)N(C)Cc1ccccn1	-14.8%
COc1ccccc1C(N)CC(C)C (stereo unspecified)	-8.84%
CCCOc1ccccc1C(N)CC(C)C (stereo unspecified)	-9.52%
CN(Cc1c(F)cccc1Cl)C(=O)c1cnn(CCN2CCCCC2)c1	18.7%

Structure (SMILES)	cytotoxicity at 70.5 h
Cc1cc(C2CCCN2C(=O)CN2CCc3ccccc32)on1 (stereo unspecified)	-0.619%
CN1CCC(C(=O)N2CCC(=Cc3cccc(F)c3)CC2)CC1=O (stereo unspecified)	16.2%
CC1COCCN1C(=O)c1cnccn1 (stereo unspecified)	7.55%
CCc1ncnc(N2CCOCC2CCO)c1F (stereo unspecified)	-2.27%
Cc1nc(CCCNC(=O)c2c(F)cccc2Br)n[nH]1	3.62%
NC(=O)c1cnn2c1NCC(CNCC1(c3ccccc3)CCCC1)C2 (stereo unspecified)	0.136%
Cc1cc(C(=O)Nc2cc(C3CC3)n[nH]2)c2c(C)nn(C)c2n1	-12.4%
c1ccc(C2(NCC3CNc4ccnn4C3)CCC2)cc1 (stereo unspecified)	-2.65%
CC1CCC(NS(=O)(=O)CC(=O)NC(C2CC2)C2CC2)CC1 (stereo unspecified)	23.5%
CC1CCC(NS(=O)(=O)CC(=O)NCC2CCC2)CC1 (stereo unspecified)	-13.2%
CC1CCC(NS(=O)(=O)CC(=O)NC2(C(N)=O)CCCC2)CC1 (stereo unspecified)	-7.07%
Cc1cccc(OCCNC(=O)Cn2ccc(C)cc2=O)c1	-8.95%
CC(C)c1ncc2c(n1)CN(c1ncnc3[nH]ccc13)CC2	17.1%
CC(C)C(NC(=O)Cc1ccccc1)C(=O)NCc1ccc(O)nc1 (stereo unspecified)	-11.4%
CCS(=O)(=O)CC(C)N(C)C(=O)COc1ccccc1C#N (stereo unspecified)	-15.4%
CCC(=O)NC(c1ccc(C)cc1)c1cccc(S(C)(=O)=O)c1 (stereo unspecified)	-11.9%
CCNC(=O)C1CCCN(c2ccc3ccc(F)cc3n2)C1 (stereo unspecified)	0.815%
Cc1cccc(OCCCNC(=O)Cn2ccc(C)cc2=O)c1	-6.82%
O=C(Nc1cc[nH]n1)c1ccc(COCC(F)(F)F)cc1	-4%
CC(C)C(C)N(C(=O)Cn1nc2n(c1=O)CCCCC2)C1CC1 (stereo unspecified)	-11.4%
Cc1cc(C(=O)NC2CCCOc3cc(Cl)ccc32)n(C)n1 (stereo unspecified)	-5.69%
O=C(NC1CCCOc2cc(Cl)ccc21)c1ccc(=O)[nH]n1 (stereo unspecified)	-13.7%

Structure (SMILES)	cytotoxicity at 70.5 h
Cc1nc(C)c(S(=O)(=O)NC(=O)c2ccoc2)s1	-13%
NC(=O)CCC1CCCN(c2ccnc3cc(F)ccc23)C1 (stereo unspecified)	-12.1%
Cc1nc(C)c(S(=O)(=O)NC(=O)c2sccc2C)s1	-14.3%
COCCOc1ccc(CNC2CCc3ncnn3C2)cc1OC (stereo unspecified)	-9.82%
CNc1snc(C)c1C(=O)NC(C)CC(=O)c1cccs1 (stereo unspecified)	-14.5%
CCc1ncnc(N2CCOCC2C2CC2)c1F (stereo unspecified)	-15.6%
Cc1ccc(N2CCCN(C(=O)CCCn3ccnc3C)CC2)nn1	-0.226%
COC(=O)c1ccc(N(C(=O)c2cccnc2C)C(C)C)c(C)c1	-7.81%
N#CCCn1cnc2c(Br)cccc2c1=O	-14.7%
O=C(NCc1ccc(OCC2CC2)nc1)C1COc2ccccc2O1 (stereo unspecified)	-5.51%
CC(C)C(C)NC(=O)Nc1cccc(OCC#N)c1 (stereo unspecified)	-8.7%
Cc1cccnc1NC(=O)c1ccc(F)c(S(=O)(=O)N2CCC2)c1	-19.3%
O=C(NC1CCN(C2CC2)CC1)c1cn(-c2ccc(Cl)cc2)nn1	-7.11%
Cc1ccnc(NC(=O)c2ccc(F)c(S(=O)(=O)NC3CC3)c2)c1	-7.61%
CCOc1ccc(NC(=O)NCCCN(C)S(C)(=O)=O)cc1C	-15.1%
NC(=O)CN(Cc1ncc(-c2ccccc2)o1)C1CCCC1	-7.44%
O=C(NC1CCN(C2CC2)C1)c1cn(-c2ccc(F)cc2)nn1 (stereo unspecified)	-6.52%
CC(C)(C)c1nc(CC(=O)NCCC(=O)Nc2ccncc2)cs1	5.09%
CCOc1ccc(NC(=O)NCCS(=O)(=O)CC)cc1C	-8.96%
O=C(NCc1ccnc(OCC2CC2)c1)C1Cc2ccccc2O1 (stereo unspecified)	-4.48%
O=C(NC1CCCN(Cc2c(F)cccc2F)C1)c1cnccn1 (stereo unspecified)	1.65%
COC(=O)c1ccc(N(C(=O)c2cscn2)C(C)C)c(C)c1	-4.28%

Structure (SMILES)	cytotoxicity at 70.5 h
CCOc1cc(NC(=O)N2CCOC3(CCC3)C2)ccc1C	-5.84%
CCOC(=O)N(C)C1CCN(Cc2cnc3ccccn23)CC1	-4.79%
CC(Cn1cncn1)NC(=O)Nc1ccc(COC2CCCC2)cc1 (stereo unspecified)	-1.86%
CC(CCO)Nc1cccc(C(F)(F)F)n1 (stereo unspecified)	3.64%
CC(C)c1ncc2c(n1)CN(Cc1ccc3c(c1)OCCO3)CC2	12.6%
CN(C1CCc2ccccc2C1)S(C)(=O)=O (stereo unspecified)	0.716%
CC(CO)CSc1ncnc2[nH]ncc12 (stereo unspecified)	-0.794%
CC(C)COc1cncc(NC(CO)c2ccco2)n1 (stereo unspecified)	11.4%
CCOc1ccccc1N(C)C(=O)c1ccc(Cl)cn1	21.8%
Cc1nn(C)c(C)c1OCC(=O)NCc1cccc(C(=O)O)c1	3.51%
CSCC(CCO)Nc1cccc(C(F)(F)F)n1 (stereo unspecified)	-1.51%
CC(C)C(=O)Nc1cc(C(C)(C)C)nn1-c1ccccn1	-3.18%
c1cc(CN2CCc3cncnc3C2)c2c(c1)OCCO2	-6.07%
CN(C)C(=O)c1ccccc1NCCCOc1cccc(C#N)c1	13.1%
Cc1cncc(NCC(O)c2ccco2)n1 (stereo unspecified)	-9.53%
O=C(Nc1cccnc1)Nc1cccc(CN2CCC(O)CC2)c1	10.2%
C1CC(c2noc(C3CC3)n2)CN(CCOCC2CC2)C1 (stereo unspecified)	7.19%
Cc1nc(C)n(CC2CCCCN2CCCN2CCCC2=O)n1 (stereo unspecified)	33.6%
O=C(NCc1ccccc1CN1CCCC1)Nc1cccnc1	-4.93%
CC(C)(C)NC(=O)CNC(=O)c1cccnc1Oc1cccnc1	-6.52%
